# Results from patent US20060127890A1, “Novel gene overexpressed in heart and skeletal muscle and use thereof” (priority 2000, published 2006).
# System: rat 187-2 gene
# Experiment: Expression analysis of the rat 187-2 gene in H9c2 cells by TaqMan PCR upon norepinephrine stimulation
# Format: cell-based
# Settings: serum-free DMEM, norepinephrine 10 nM or 100 nM, after 4 and 8 hours, corrected on G3PDH, versus absence of norepinephrine
# Experimental: H9c2 cells are a cell strain derived from rat myocardial cells, and were purchased from ATCC. The cells were cultured in DMEM medium containing 10% bovine serum, and the cells were recovered using trypsin, inoculated at a density of 100000 cells/well of a 12-well plate and cultured for 12 hours in DMEM medium containing 10% bovine serum. Thereafter, the medium was exchanged with serum-free DMEM, and 10 nM norepinephrine was added at a concentration of 10 nM or 100 nM to the medium, and after 4 and 8 hours, the amount of the rat 187-2 gene expressed was quantified by TaqMan PCR.
compound,measurement,value
NC[C@H](O)c1ccc(O)c(O)c1 [norepinephrine],amount of the rat 187-2 gene expressed (maximum level),about twice that in the absence of norepinephrine
